{"source": "patent US7429397B2", "about": "“Herbal formulation as memory enhancer in Alzheimer condition” (Council of Scientific and Industrial Research, priority 2004, dated 2008)", "key": {"[1]": {"tested_on": "λ carrageenin induced edema in rats", "assay": "λ carrageenin induced paw edema", "assay_type": "in vivo", "quoted_text": "Carrageenin induced paw edema: Rats were injected with 0.1 ml of 1% λ carrageenin (St.-Louis, Mo.) into the subplantar side of the left hind paw. The paw was marked with ink at the level of the lateral malleolus and dipped in perspex cell up to this mark. The paw volume was measured with an Ugo Basile Plethysmometer (No: 61402) (7140 Comerio-varese, Italy) immediately and 3 h after injecting the λ carrageenin suspension. […] Significant reductions in the paw volume compared to vehicle treated control animals were considered as anti-inflammatory response. Percentage inhibition of oedema was calculated as follows: % Inhibition=(1−VT/VC)×100 VT=Paw volume in drug treated rats, VC=Paw volume in control group of rats."}, "[2]": {"tested_on": "impairment of memory acquisition in step-down test in rats (scopolamine)", "assay": "Passive avoidance task (step-down test), scopolamine-induced impairment of memory acquisition", "assay_type": "in vivo", "method": "Passive avoidance task (step-down test): A step-down passive avoidance was examined using apparatus consisted of a box (25×25×40 cm), a floor with stainless-steel grid 2 mm in diameter at 8-mm intervals, and a rubber platform (4 cm diameter, 4 cm height) set on the grid in one corner. Electric stimulation was given through the grid connected with a scrambled shock generator. […] For this trial, each rat was placed gently on the platform and allowed to habituate freely for 3 min, and then electric shock (0.4 mA) were delivered to the grid. If the rat stepped down from the platform, the electric shock was delivered to the rat on the grid floor. The cut off time was 2 min. A retention trail was performed 24 hr after the acquisition trail. Each rat was again placed on the platform. Time (step-down latency) that elapsed until rats stepped down from the electric grid of the platform to shock free zone was recorded. […] An error was counted when ever the rat stepped down from platform. The number of error made in 2 min was recorded."}}, "note": "Marks after values point to notes of the source that are not given here."}
{"smiles": "COc1ccc2c(c1)c(CC(=O)O)c(C)n2C(=O)c1ccc(Cl)cc1", "note": "[Indomethacin]", "values": [{"measurement": "Paw volume (ml) at 3 h λ carrageenin", "setting": "[1]; 100 mg/kg orally 1 h before carrageenin, six rats, mean ± SEM", "result": "0.18 ± 0.02^c ml"}, {"measurement": "inhibition at 100 mg/kg", "setting": "[1]; Rattus norvegicus, inhibition of paw oedema at 3 h vs control, 100 mg/kg, (1−VT/VC)×100", "result": 79.3, "unit": "%"}]}
{"smiles": "CN1[C@@H]2C[C@@H](OC(=O)[C@H](CO)c3ccccc3)C[C@H]1[C@@H]1O[C@@H]12", "note": "[Scopolamine]", "values": [{"measurement": "number of mistakes and latency period (in words)", "setting": "[2]; scopolamine treated group", "result": "significant increase in the number of mistakes as well as increase the latency period"}, {"measurement": "Latency", "setting": "[2]; step-down test, rats n=10, scopolamine 0.4 mg/kg i.p., formulations 100 mg/kg, tacrine dose not given, mean ± S.E.M.", "result": "8.8 ± 0.03", "unit": "s"}]}
